Measurements published in patent publication US20240159740A1, “METHOD FOR DIRECT ANALYSIS OF FUNCTIONAL AVIDITY OF T CELLS” (priority 2021, published 2024).
Where “and” joins values, the source holds several entries; their conditions need not be identical. Equal entries are not always repeated.

How the values were obtained:
serum IgG antibodies = conditions: sera 1:100 from iCope T cell assay responders and non-responders
Description: After blocking (1 h, 30° C.) serum samples were diluted 1:100 and incubated for 1 h at 30° C. HRP-coupled, anti-human-IgG secondary antibody (Jackson Immunoresearch) was diluted 1:5000 (Jackson Immunoresearch) and added to the serum samples for 1 h at 30° C., then HRP substrate was added (TMB, Kem-En-Tec). The reaction was stopped by adding sulfuric acid and absorption was measured at 450 nm using a FlexStation 3.

[1] = tested on: expanded CD40L+4-1BB+ CD4+ short-term T cell lines; experiment: Restimulation of expanded short-term T cell lines with autologous APC and peptides or peptide pools; format: cell-based, human; conditions: T cell lines from 5 unexposed individuals
[2] = tested on: CD3 surface expression in CD40L+4-1BB+ CD4+ T cells; format: cell-based, human
[3] = tested on: CD40L+4-1BB+ CD4+ T cells; experiment: Ex vivo T cell stimulation of PBMC, stimulation index of CD40L+4-1BB+ CD4+ T cells by flow cytometry; format: cell-based, human

## Biotin-Ttds-PSKPSKRSFIEDLLFNKV-OH [204_-1]
Serum IgG antibodies
  peptide binding IgG antibodies detected in serum: in all individuals

## FIEDLLFNKVTLADA [compound 205]
[1]
  donors whose expanded SARS-CoV-2 S-II-cross-reactive T cells were stimulated by the peptide: all 5 donors

## SFIEDLLFNKVTLAD [iCope]
[2]
  donors in which reactive T cells increased in frequency and in functional avidity: 10 of 17
[2]; day 7 and day 14 after BNT162b2 primary vaccination, 31 donors
  donors responding with high functional avidity T cells: 94%
[3]; BNT162b2 vaccinated individuals
  proportion of individuals with iCope-recognizing CD4+ T cells: 97%
[3]; SARS-CoV-2 / COVID-19 convalescents
  proportion of individuals with iCope-reactive CD4+ T cells: 50% and 50-60%
[3]; initially after BNT162b2 vaccination
  contribution of peptide-specific T cells to the CD40L+4-1BB+ cells in S-II stimulations: up to 100%
[3]; unexposed individuals
  proportion of individuals with iCope-reactive CD4+ T cells: 20%
[3]; young, unexposed donors
  strong responders (stim. index>3): 44%
  weak responders (stim. index>1.5): 39%

## SKRSFIEDLLFNKVT [compound 204]
[1]
  donors whose expanded SARS-CoV-2 S-II-cross-reactive T cells were stimulated by the peptide: all 5 donors
